These results are taken from patent US20100069366A1, “ANTIBACTERIAL QUINOLINE DERIVATIVES” (JANSSEN-CILAG, priority 2006, published 2010).

For one series, the system named is M. Smegmatis ATCC607. Briefly: In-vitro anti-bacterial activity against strain M. smegmatis ATCC607. Format: cell-based. Particulars: for IC90: Mycolicibacterium smegmatis. The method, then: Flat-bottom, sterile 96-well plastic microtiter plates were filled with 180 μl of sterile deionized water, supplemented with 0.25% BSA. Subsequently, stock solutions (7.8× final test concentration) of compounds were added in 45 μl volumes to a series of duplicate wells in column 2 so as to allow evaluation of their effects on bacterial growth. Serial five-fold dilutions (45 μl in 180 μl) were made directly in the microtiter plates from column 2 to 11 using a customised robot system (Zymark Corp., Hopkinton, Mass.). Pipette tips were changed after every 3 dilutions to minimize pipetting errors with high hydrophobic compounds. Untreated control samples with (column 1) and without (column 12) inoculum were included in each microtiter plate. Approximately 250 CFU per well of bacteria inoculum, in a volume of 100 μl in 2.8× Mueller-Hinton broth medium, was added to the rows A to H, except column 12. The same volume of broth medium without inoculum was added to column 12 in row A to H. The cultures were incubated at 37° C. for 48 hours in a humidified 5% CO2 atmosphere (incubator with open air valve and continuous ventilation). At the end of incubation, two days after inoculation, the bacterial growth was quantitated fluorometrically. Therefore Alamar Blue (10×) was added to all wells in a volume of 20 μl and plates were incubated for another 2 hours at […]
The fluorescence was read in a computer-controlled fluorometer (Cytofluor, Biosearch) at an excitation wavelength of 530 nm and an emission wavelength of 590 nm (gain 30).

Series [1] has as its system Streptococcus pneumoniae (ATCC6305). Put plainly: Microtitre plate assay, IC90 determination, SPN 6305. The class given is cell-based. The conditions noted are these: 90% inhibitory concentration for bacterial growth, resazurin. The method, then: (§1) The bacteria used in this study were grown overnight in flasks containing 100 ml Mueller-Hinton Broth (Becton Dickinson—cat. no. 275730) in sterile de-ionized water, with shaking, at 37° C. Stocks (0.5 ml/tube) were stored at −70° C. until use. Bacteria titrations were performed in microtiter plates to detect the TCID50, in which the TCID50 represents the dilution that gives rise to bacterial growth in 50% of inoculated cultures.
(§2) In general, an inoculum level of approximately 100 TCID50 was used for susceptibility testing.
(§3) Flat-bottom, sterile 96-well plastic microtiter plates were filled with 180 μl of sterile deionized water, supplemented with 0.25% BSA. Subsequently, stock solutions (7.8× final test concentration) of compounds were added in 45 μl volumes in column 2 Serial five-fold dilutions (45 μl in […]) were made directly in the microtiter plates from column 2 to reach column 11. Untreated control samples with (column 1) and without (column 12) inoculum were included in each microtiter plate. Depending on the bacteria type, approximately 10 to 60 CFU per well of bacteria inoculum (100 TCID50), in a volume of 100 μl in 2.8× Mueller-Hinton broth medium, was added to the rows A to H, except column 12. The same volume of broth medium without inoculum was added to column 12 in row A to H. The cultures were incubated at 37° C. for 24 hours under a normal atmosphere (incubator with open air valve and continuous ventilation). At the end of incubation, one day after inoculation, the bacterial growth was quantitated fluorometrically. Therefore resazurin (0.6 mg/ml) was added in a volume of 20 μl to all wells 3 hours after inoculation, and the plates were re-incubated overnight. A change in colour from blue to pink indicated the growth of bacteria. The fluorescence was read in a computer-controlled fluorometer (Cytofluor Biosearch) at an excitation wavelength of 530 nm and an emission wavelength of 590 nm. The % growth inhibition achieved by the compounds was calculated according to standard methods.

Series [2] has as its system Staphylococcus aureus (ATCC29213). Put plainly: Microtitre plate assay, IC90 determination, STA 29213. Format: cell-based. The conditions noted are these: Staphylococcus aureus ATCC29213, 90% inhibitory concentration for bacterial growth, resazurin; for IC90: read-out: IC90 (μg/ml) STA 29213. The method, then: as §1, §2, §3
Series [3] concerns Pseudomonas aeruginosa (ATCC27853). Put plainly: Microtitre plate assay, IC90 determination, PAE 27853. The class given is cell-based. The method, then: as §1, §2, §3
Series [4] concerns Enterococcus faecalis (ATCC29212). Put plainly: Microtitre plate assay, IC90 determination, EFA 29212. The class given is cell-based. The method, then: as §1, §2, §3
Series [5] concerns Streptococcus pyogens (ATCC8668). Briefly: Microtitre plate assay, IC90 determination, SPY 8668. Format: cell-based. The method, then:
as §1, §2, §3

The subject of series [6] is methicilline resistant Staphylococcus aureus (MRSA) (a clinical isolate from the University of Antwerp). Put plainly: Microtitre plate assay, IC90 determination, STA RMETH. The class given is cell-based. Particulars: 90% inhibitory concentration for bacterial growth, resazurin; for IC90: Staphylococcus aureus, read-out: IC90 (μg/ml) STA RMETH. The method, then:
as §1, §2, §3

Series [7] relates to Staphylococcus aureus (ATCC25923). Put plainly: Microtitre plate assay, IC90 determination, STA 25923. The class given is cell-based. The method, then:
as §1, §2, §3

The mark [8] stands for this setting: ATCC607, 90% inhibitory concentration for bacterial growth, 48 hours, Alamar Blue fluorescence, read-out: M. smegmatis IC90.
Where [9] appears, read: Streptococcus pneumoniae ATCC6305, read-out: IC90 (μg/ml) SPN 6305.
Setting [10] is: Pseudomonas aeruginosa ATCC27853, 90% inhibitory concentration for bacterial growth, resazurin, read-out: IC90 (μg/ml) PAE 27853.
Setting [11] is: Enterococcus faecalis ATCC29212, 90% inhibitory concentration for bacterial growth, resazurin, read-out: IC90 (μg/ml) EFA 29212.
Where [12] appears, read: Streptococcus pyogens ATCC8668, 90% inhibitory concentration for bacterial growth, resazurin, read-out: IC90 (μg/ml) SPY 8668.
The mark [13] stands for this setting: Staphylococcus aureus ATCC25923, 90% inhibitory concentration for bacterial growth, resazurin, read-out: IC90 (μg/ml) STA 25923.
Where [14] appears, read: Pseudomonas aeruginosa ATCC27853, 90% inhibitory concentration for bacterial growth, resazurin.
The mark [15] stands for this setting: 90% inhibitory concentration for bacterial growth, 48 hours, Alamar Blue fluorescence.
Setting [16] is: Enterococcus faecalis ATCC29212, 90% inhibitory concentration for bacterial growth, resazurin.
[17] abbreviates: Streptococcus pneumoniae ATCC6305.
[18] abbreviates: Streptococcus pyogens ATCC8668, 90% inhibitory concentration for bacterial growth, resazurin.

Structures are written as SMILES. Converted amounts (≈) assume the structure as drawn. Read-outs that look alike come from different tables or passages of the source.

Turning to `COc1nc2ccc(Br)cc2cc1C(/C(=C/CN(C)C)CCc1ccccc1)c1ccccc1` (stereo not shown) [Compound 8], the melting point was 128 °C. For the same molecule, the IC90 in the series on M. Smegmatis ATCC607 (setting [8]) is 1.63 µg/mL (≈ 3.16 µM). Also, the IC90 in series [1] (setting [9]) was found to be 2.05 µg/mL (≈ 3.98 µM). The IC90 in series [2] was 8.17 µg/mL (≈ 15.8 µM).

For `COc1nc2ccc(Br)cc2cc1/C(=C(/CCN(C)C)c1cccc2ccccc12)c1ccccc1` [Compound 9], the IC90 in series [3] (setting [10]) was found to be 9.56 µg/mL (≈ 17.8 µM); in the series on M. Smegmatis ATCC607 (setting [8]), 1.7 µg/mL (≈ 3.16 µM); in series [4] (setting [11]) it was 10.7 µg/mL (≈ 19.9 µM); in series [1] (setting [9]) it was 9.56 µg/mL (≈ 17.8 µM); in [5] (setting [12]) it was 10.7 µg/mL (≈ 19.9 µM); in series [6] it was 3.81 µg/mL (≈ 7.09 µM). Besides, the IC90 in series [7] (setting [13]) came to 5.38 µg/mL (≈ 10 µM); in [2], 2.69 µg/mL (≈ 5 µM).

For `COc1nc2ccc(Br)cc2cc1C(/C(=C/CN(C)C)c1cccc2ccccc12)c1ccccc1` (stereo not shown) [Compound 10], the IC90 in series [3] (setting [10]) turned out to be 21.4 µg/mL (≈ 39.8 µM); in the series on M. Smegmatis ATCC607 (setting [8]) it was 0.43 µg/mL (≈ 0.8 µM); in [4] (setting [11]), 5.38 µg/mL (≈ 10 µM); in [1] (setting [9]) it was 12 µg/mL (≈ 22.4 µM); in [5] (setting [12]), 9.56 µg/mL (≈ 17.8 µM); in series [6] it was 12 µg/mL (≈ 22.4 µM). Also, the results for the IC90 in series [7] (setting [13]) and in [2] were 4.27 µg/mL (≈ 7.94 µM) and 4.79 µg/mL (≈ 8.91 µM), respectively.

As to `COc1nc2ccc(Br)cc2cc1C(/C(=C/CN(C)C)CCc1ccccc1)c1ccccc1` (stereo not shown) [Compound 13], the IC90 in [3] (Pseudomonas aeruginosa, ATCC27853, read-out: IC90 (μg/ml) PAE 27853) came out at 12.2 µg/mL (≈ 23.7 µM); in the series with M. Smegmatis ATCC607 (ATCC607, 48 h, read-out: M. smegmatis IC90 (μg/ml), 90% inhibitory concentration for bacterial growth, Alamar Blue fluorescence), 1.73 µg/mL (≈ 3.36 µM); in [4] (Enterococcus faecalis, ATCC29212, read-out: IC90 (μg/ml) EFA 29212), 12.2 µg/mL (≈ 23.7 µM); in series [1] (Streptococcus pneumoniae, ATCC6305, read-out: IC90 (μg/ml) SPN 6305, Streptococcus pneumoniae ATCC6305) it was 8.67 µg/mL (≈ 16.8 µM); in series [5] (Streptococcus, ATCC8668, read-out: IC90 (μg/ml) SPY 8668), 9.73 µg/mL (≈ 18.9 µM); in series [7] (Staphylococcus aureus, ATCC25923, read-out: IC90 (μg/ml) STA 25923), 10.9 µg/mL (≈ 21.2 µM).

On to `COc1nc2ccc(Br)cc2cc1C(/C(=C/CN(C)C)c1ccsc1)c1ccccc1` (stereo not shown) [Compound 17], for which the IC90 in series [3] (setting [10]) turned out to be 44 µg/mL (≈ 89.1 µM); with M. Smegmatis ATCC607 (setting [8]), 39.2 µg/mL (≈ 79.4 µM); in series [4] (setting [11]), 39.2 µg/mL (≈ 79.4 µM); in [1] (setting [9]) it was 7.82 µg/mL (≈ 15.8 µM); in series [5] (setting [12]), 19.6 µg/mL (≈ 39.8 µM); in series [2], 15.6 µg/mL (≈ 31.6 µM).

For the molecule `COc1nc2ccc(Br)cc2cc1C(=C(CCN(C)C)c1ccccc1)c1ccccc1` [Compound 36], the “IC90 (μg/ml) PAE 27853” value in [3] (setting [14]) was 12.24 µg/mL (≈ 25.1 µM). In the series on M. Smegmatis ATCC607 (setting [15]), the “M. smegmatis IC90” value turned out to be 1.94 mg/L. The “IC90 (μg/ml) EFA 29212” value in series [4] (setting [16]) amounted to 12.24 µg/mL (≈ 25.1 µM). Further, the “IC90 (μg/ml) SPN 6305” value in series [1] (setting [17]) worked out at 5.47 µg/mL (≈ 11.2 µM). The “IC90 (μg/ml) SPY 8668” value in series [5] (setting [18]) was 9.73 µg/mL (≈ 20 µM). Further, the “IC90 (μg/ml) STA RMETH” value in series [6] worked out at 12.24 µg/mL (≈ 25.1 µM). The “IC90 (μg/ml) STA 25923” value in series [7] (Staphylococcus aureus ATCC25923, 90% inhibitory concentration for bacterial growth, resazurin) stood at 10.91 µg/mL (≈ 22.4 µM). Besides, the “IC90 (μg/ml) STA 29213” value in series [2] stood at 9.73 µg/mL (≈ 20 µM).

Consider `COc1nc2ccc(Br)cc2cc1C(=C(CCN(C)C)c1cccc(F)c1)c1ccccc1` [Compound 38], for which, in series [3] (setting [14]), the “IC90 (μg/ml) PAE 27853” value was found to be 8.99 µg/mL (≈ 17.8 µM). For the same molecule, the “M. smegmatis IC90” value with M. Smegmatis ATCC607 (setting [15]) was 8.01 mg/L. The “IC90 (μg/ml) EFA 29212” value in series [4] (setting [16]) stood at 8.01 µg/mL (≈ 15.8 µM). Also, the “IC90 (μg/ml) SPN 6305” value in [1] (setting [17]) worked out at 8.01 µg/mL (≈ 15.8 µM). In addition, the “IC90 (μg/ml) SPY 8668” value in series [5] (setting [18]) was determined as 3.58 µg/mL (≈ 7.08 µM). For the same molecule, the “IC90 (μg/ml) STA 29213” value in series [2] was 10.08 µg/mL (≈ 19.9 µM).
